Among the data in ChEMBL document CHEMBL1144765, “Des-A-ring benzothiadiazines: inhibitors of HCV genotype 1 NS5B RNA-dependent RNA polymerase” (Bioorg Med Chem Lett, 2008) are EC50 values, retold here.

Molecules are shown by their SMILES.

Holding throughout (experiment): microbe, parasite or virus in culture
The test system of test [1] is Hepatitis C virus. To be noted: genotype 1b.
The test system of test [2] is Hepatitis C virus. The settings on record: genotype 1b. The source holds these as a separate data set.
Test [3] deals with Hepatitis C virus. To be noted: genotype 1b. This is another data set of the same source.
In test [4] the test system is Hepatitis C virus. To be noted: subtype 1a.

Consider `C=Cc1cn(CCC(C)C)c(=O)c(C2=NS(=O)(=O)c3cc(NS(C)(=O)=O)ccc3N2)c1O`, for which the EC50 stood at 0.0625 µM in the test on Hepatitis C virus [1] and 0.0088 µM in the test on Hepatitis C virus [2].

With `CC(C)CCn1c(=O)c(C2=NS(=O)(=O)c3cc(NS(C)(=O)=O)ccc3N2)c(O)c2cccnc21`, the EC50 in the test with Hepatitis C virus [1] is 0.736 µM; in the test on Hepatitis C virus [3], 0.002 µM; with Hepatitis C virus [2] it was 0.002 µM; in the test on Hepatitis C virus [4] it was 0.016 µM.

`C/C=C/c1cn(CCC(C)C)c(=O)c(C2=NS(=O)(=O)c3cc(NS(C)(=O)=O)ccc3N2)c1O`: the EC50 in the test with Hepatitis C virus [1] was determined as 0.0382 µM; with Hepatitis C virus [2], 0.0056 µM.

In the case of `CC(C)CCn1ccc(O)c(C2=NS(=O)(=O)c3cc(NS(C)(=O)=O)ccc3N2)c1=O`, the EC50 was 0.911 µM in the test on Hepatitis C virus [1] and 0.163 µM in the test on Hepatitis C virus [2].
